Where no end group is shown, it is not given here.
Assays:
[1] = test system: rat peritoneal mast cells; parameters: dose or concentration left out as unconfirmed; conditions: concentration range; in words; cited from earlier work
[2] = test system: rats experimentally sensitised to ovalbumin; assay: Serum histamine after systemic ovalbumin challenge of immunised, experimentally sensitised rats; type: in vivo, rat

Substance | non-cytolytic release of histamine from rat peritoneal mast cells in vitro [1] | Histamine release ([2]; A = immunised before experimental sensitisation, Control A 300) [ng/mL] | Histamine release ([2]; B = immunised after experimental sensitisation, Control B 950) [ng/mL]
KTKGSGFF [octapeptide (sequence 497-504)] | dose-dependent histamine release | – | –
RKTKGSGFF [nonapeptide (sequence 496-504)] | dose-dependent histamine release | – | –
KTKGSGFFVF [decapeptide (sequence 497-506)] | dose-dependent histamine release | – | –
Lys-Tyr-Asn-Gly-Ser-Asn-Gln-Arg-Phe-Phe-Ile-Phe-NH2 (KYNGSNQRFFIF-NH2) [F49, histamine releasing rat ε-chain dodecapeptide, used as immunogen] | – | 0 | 50
